Assay results reported in patent publication US7932271B2, “Heterocyclic methyl sulfone derivative” (Daiichi Pharmaceutical Co., Ltd., priority 2003, dated 2011).

Legend:
[1] = tested on: β amyloid protein (Aβ) secreted by E35 cells (human glioma H4 cells transfected with APP751 gene); assay: Inhibition of production or secretion of β-amyloid protein (Aβ) in E35 cells, sandwich ELISA of the supernatant; assay type: cell-based; conditions: 24 hours with test compound, compared to DMSO control cells, read-out: Activity (IC50, concentration at which 50% inhibition of Aβ production was observed)
Experimental: The inhibitory activity against formation of β amyloid protein of the compounds obtained in Examples was tested in the method described bellow.
E35 cells were established by transfecting APP751 gene which is a wild type human β-amyloid protein precursor into human glioma cells (H4 cells).
E35 cells were seeded in 96-well plates and cultured in an incubator of 37° C. by using a Dulbecco's Modified Eagle's Medium containing 10% inactivated fetal bovine serum (10% FBS-DMEM). Twenty-four hours after seeding, a test compound dissolved in DMSO so as to give its concentration to be 2000 times as much as that of the final concentration was added to the medium in an amount of 1/2000 capacity of the culture medium. The cells were cultured for additional twenty-four hours, and then the supernatant was collected. The amount of β amyloid protein (Aβ) secreted in the supernatant was measured by the sandwich enzyme-linked immunosorbent assay (ELISA). Described specifically, a monoclonal antibody 25-1, which recognized Aβ25-35, was immobilized onto a 96-well ELISA plate, followed by the incubation at 4° C. for 16 to 20 hours. After washing with a phosphate buffer (pH 7.4) (PBS), a biotinylated monoclonal antibody MA32-40, which recognized Aβ1-8, was added, and the plate was kept at 4° C. for 2 hours. After the supernatant was removed and the well was washed sufficiently with PBS, alkaline phosphatase-conjugated streptavidin was added to the plate. Absorbance was measured while adding BlouPhos (manufactured by KPL) as a substrate. An amount of Aβ contained in the supernatant was calculated using a calibration curve separately created using Aβ of a known concentration. IC50 of the test compound was presented as the concentration at which 50% inhibition of Aβ production was observed compared to the amount of Aβ of the control cells to which only DMSO was added.
When there is at least 10-times difference between the IC50 and the concentration at which cytotoxicity appears, then the compound is judged as a compound having an inhibitory activity against production or secretion of β amyloid protein.

IC50 [1] [nM]	melting point [°C]	Structure (SMILES)
5 to 50		[O-][S+](c1ccc(Cl)cc1)C(c1cc(F)ccc1F)c1ccncc1Cl (stereo not drawn) [Example 56, 3-Chloro-4-[(4-chlorophenylsulfinyl)-(2,5-difluorophenyl)methyl]pyridine]
< 5	168 to 169	O=S(=O)(c1ccc(Cl)cc1)C(c1cc(F)ccc1F)c1cc(NCCO)ncc1Cl (stereo not drawn) [Example 168, 2-[[5-Chloro-4-[(4-chlorophenylsulfonyl)-(2,5-difluorophenyl)methyl]pyridin-2-yl]amino]ethanol]
50 to 500	107 to 109	O=S(=O)(c1ccc(Cl)cc1)C(c1cc(F)ccc1F)C1CCCCC1 (stereo not drawn) [Example 1, 2-[[(4-Chlorophenyl)sulfonyl](cyclohexyl)methyl]-1,4-difluorobenzene]
5 to 50	146 to 148	O=S(=O)(c1ccc(Cl)cc1)C(c1cc(F)ccc1F)c1cc(N2CCC(O)CC2)ncc1Cl (stereo not drawn) [Example 116, 5-Chloro-4-[(4-chlorophenylsulfonyl)-(2,5-difluorophenyl)methyl]-2-(4′-hydroxypiperidin-1′-yl)pyridine]
5 to 50		NNc1cc(C(c2cc(F)ccc2F)S(=O)(=O)c2ccc(Cl)cc2)c(Cl)cn1 (stereo not drawn) [Example 222, [5-Chloro-4-[(4-chlorophenylsulfonyl)(2,5-difluorophenyl)methyl]pyridin-2-yl]hydrazine]
50 to 500	214 to 216	CS(=O)(=O)Nc1cc(C(c2cc(F)ccc2F)S(=O)(=O)c2ccc(Cl)cn2)c(Cl)cn1 (stereo not drawn) [Example 242, N-[5-Chloro-4-[(5-chloropyridin-2-ylsulfonyl)(2,5-difluorophenyl)methyl]pyridin-2-yl]methanesulfonamide]
5 to 50	166 to 167	O=C(O)CCc1cc(C(c2cc(F)ccc2F)S(=O)(=O)c2ccc(C(F)(F)F)cc2)c(Cl)cn1 (stereo not drawn) [Example 267, 3-[5-Chloro-4-[(2,5-difluorophenyl)(4-trifluoromethylphenylsulfonyl)methyl]pyridin-2-yl]propionic acid]
< 5		CS(=O)(=O)Nc1cc(C(c2cc(F)ccc2F)[S+]([O-])c2ccc(Cl)cc2)c(Cl)cn1 (stereo not drawn) [Example 221, N-[5-Chloro-4-[(4-chlorophenylsulfinyl)(2,5-difluorophenyl)methyl]pyridin-2-yl]methanesulfonamide]
< 5		O=S(=O)(c1ccc(Cl)cc1)C(c1cc(F)ccc1F)c1cc(NCCN2CCOCC2)ncc1Cl (stereo not drawn) [Example 106, 4-[2-[5-Chloro-4-[(4-chlorophenylsulfonyl)-(2,5-difluorophenyl)methyl]pyridin-2-yl]aminoethyl]morpholine]
< 5		O=S(=O)(c1ccc(Cl)cc1)C(c1cc(F)ccc1F)c1cc(NCC[N+]2([O-])CCOCC2)ncc1Cl (stereo not drawn) [Example 61, 4-[2-[5-Chloro-4-[(4-chlorophenylsulfonyl)-(2,5-difluorophenyl)methyl]pyridin-2-yl]aminoethyl]morpholine-N-oxide]
5 to 50		NCC1CN(c2cc(C(c3cc(F)ccc3F)S(=O)(=O)c3ccc(Cl)cc3)c(Cl)cn2)CCO1 (stereo not drawn) [Example 114, 2-Aminomethyl-4-[5-chloro-4-[(4-chlorophenylsulfonyl)-(2,5-difluorophenyl)methyl]pyridin-2-yl]morpholine]
< 5		CS(=O)(=O)CCNc1cc(C(c2cc(F)ccc2F)S(=O)(=O)c2ccc(Cl)cc2)c(Cl)cn1 (stereo not drawn) [Example 176, 5-Chloro-4-[(4-chlorophenylsulfonyl)-(2,5-difluorophenyl)methyl]-2-[(2-methylsulfonylethyl)amino]pyridine]
5 to 50		CNCCN(C)c1cc(C(c2cc(F)ccc2F)S(=O)(=O)c2ccc(Cl)cc2)c(Cl)cn1 (stereo not drawn) [Example 109, 5-Chloro-4-[(4-chlorophenylsulfonyl)-(2,5-difluorophenyl)methyl]-2-[N-methyl-N-[2-(methylamino)ethyl]amino]pyridine]
< 5		CN(C)CCS(=O)(=O)Nc1cc(C(c2cc(F)ccc2F)S(=O)(=O)c2ccc(Cl)cc2)c(Cl)cn1 (stereo not drawn) [Example 279, N-[5-Chloro-4-[(4-chlorophenylsulfonyl)(2,5-difluorophenyl)methyl]pyridin-2-yl]-2-(dimethylamino)ethanesulfonamide]
5 to 50		O=S(=O)(c1ccc(Cl)cc1)C(c1cc(F)ccc1F)c1cc(Cl)ncc1Cl (stereo not drawn) [Example 57, 2,5-Dichloro-4-[(4-chlorophenylsulfonyl)-(2,5-difluorophenyl)methyl]pyridine 0.5 hydrate]
50 to 500		CS(=O)(=O)Nc1cc(C(Sc2ccc(Cl)cc2)c2cc(F)ccc2F)c(Cl)cn1 (stereo not drawn) [220 (B), N-[5-chloro-4-[(4-chlorophenylthio)(2,5-difluorophenyl)methyl]pyridin-2-yl]methanesulfonamide]

IC50 [1] [nM]	melting point [°C]	Structure (SMILES)
5 to 50		COc1c(C(c2cc(F)ccc2F)S(=O)(=O)c2ccc(Cl)cc2)c(=O)oc2ccccc12 (stereo not drawn) [23 (Compound A), 3-[[(4-Chlorophenyl)sulfonyl]-(2,5-difluorophenyl)methyl]-4-methoxychromen-2-one]
< 5		OC1CCN(c2cc(C(Sc3ccc(Cl)cc3)c3cc(F)ccc3F)c(Cl)cn2)CC1 (stereo not drawn) [Example 115, 5-Chloro-4-[(4-chlorophenylthio)-(2,5-difluorophenyl)methyl]-2-(4′-hydroxypiperidin-1′-yl)pyridine]
50 to 500		COC(=O)OCc1ccc(C(c2cc(F)ccc2F)S(=O)(=O)c2ccc(Cl)cc2)nc1 (stereo not drawn) [Example 84, [6-(4-Chlorophenylsulfonyl)(2,5-difluorophenyl)methylpyridin-3-yl]methyl methylcarbonate]
	193 to 196	CC(C)(C)OC(=O)N1CCC(C(c2cc(F)ccc2F)S(=O)(=O)c2ccc(Cl)cc2)CC1 (stereo not drawn) [Example 37, t-Butyl 4-[[(4-chlorophenyl)sulfonyl](2,5-difluorophenyl)methyl]-1-piperidinecarboxylate]
5 to 50		O=S(=O)(c1ccc(Cl)cc1)C(c1cc(F)ccc1F)c1cc(N2CCC[C@H]2CO)ncc1Cl (stereo partly drawn) [Example 111]
	103 to 105	CC(=O)NCCCNc1cc(C(c2cc(F)ccc2F)S(=O)(=O)c2ccc(Cl)cc2)c(Cl)cn1 (stereo not drawn) [Example 174, N-[3-[[5-Chloro-4-[(4-chlorophenylsulfonyl)-(2,5-difluorophenyl)methyl]pyridin-2-yl]amino]propyl]acetamide]
50 to 500		CS(=O)(=O)NCc1ccc(C(c2cc(F)ccc2F)S(=O)(=O)c2ccc(Cl)cc2)nc1 (stereo not drawn) [Example 82, N-[[6-(4-Chlorophenylsulfonyl)(2,5-difluorophenyl)methylpyridin-3-yl]methyl]methanesulfonamide]
	176 to 178	O=S(=O)(c1ccc(Cl)cc1)C(c1cc(F)ccc1F)c1cc(NCCCNc2ncccn2)ncc1Cl (stereo not drawn) [Example 175, N-[5-Chloro-4-[(4-chlorophenylsulfonyl)-(2,5-difluorophenyl)methyl]pyridin-2-yl]-N′-(pyrimidin-2-yl)propane-1,3-diamine]
	179 to 181	O=C(NCCO)c1ccc(C(c2cc(F)ccc2F)S(=O)(=O)c2ccc(Cl)cc2)nc1 (stereo not drawn) [Example 140, 6-[(4-Chlorophenylsulfonyl)(2,5-difluorophenyl)methyl]-N-(2-hydroxyethyl)nicotinamide]
	113 to 114	O=S(=O)(c1ccc(Cl)cc1)C(c1ccc(CN2CCCCC2)cn1)c1cc(F)ccc1F (stereo not drawn) [Example 48, 2-[(4-Chlorophenylsulfonyl)-(2,5-difluorophenyl)methyl]-5-(piperidin-1-ylmethyl)pyridine]
	219 to 220	NC(=O)/C=C/c1ccc(C(c2cc(F)ccc2F)S(=O)(=O)c2ccc(Cl)cc2)nc1 (stereo not drawn) [Example 136, (E)-3-[6-[(4-Chlorophenylsulfonyl)(2,5-difluorophenyl)methyl]pyridin-3-yl]acrylamide]
	120 to 121	O=S(=O)(c1ccc(Cl)cc1)C(c1ccc(CN2CCOCC2)cn1)c1cc(F)ccc1F (stereo not drawn) [Example 49, 4-[[6-[(4-Chlorophenylsulfonyl)-(2,5-difluorophenyl)methyl]pyridin-3-yl]methyl]morpholine]
	155 to 158	O=S(=O)(CCO)Nc1cc(C(c2cc(F)ccc2F)S(=O)(=O)c2ccc(Cl)cc2)c(Cl)cn1 (stereo not drawn) [Example 284, N-[5-Chloro-4-[(4-chlorophenylsulfonyl)(2,5-difluorophenyl)methyl]pyridin-2-yl]-2-hydroxyethanesulfonamide]
	121 to 123	COC(=O)CCc1ccc(C(c2cc(F)ccc2F)S(=O)(=O)c2ccc(Cl)cc2)nc1 (stereo not drawn) [Example 45, Methyl 3-[6-[(4-chlorophenylsulfonyl)-(2,5-difluorophenyl)methyl]pyridin-3-yl]propionate]
	142 to 143	Cc1cccnc1C(c1cc(F)ccc1F)S(=O)(=O)c1ccc(Cl)cc1 (stereo not drawn) [Example 14, 2-[[(4-Chlorophenyl)sulfonyl]-(2,5-difluorophenyl)methyl]-3-methylpyridine]
